What was measured:
FGFR3 mutant (K650E) = FGFR3 mutant (K650E) (Homo sapiens, UniProt P22607, K650E); test: Pan-FGFR mutant enzymatic activity; type: biochemical; details: mutant enzyme
Experimental: (§1) The inhibitory activity against pan-FGFR mutants of the compounds synthesized in Examples 1, 8, 13, 22, and 24 was measured, the inhibitory activity on each of enzymatic activity and cellular activity was evaluated, and the results are shown in Tables 3 and 4 below.

FGFR2 mutant (N549H) = FGFR2 mutant (N549H) (Homo sapiens, UniProt P21802, N549H); test: Pan-FGFR mutant enzymatic activity; type: biochemical; details: mutant enzyme
FGFR2 mutant (N549H), sequence (P21802 22-821 N549H): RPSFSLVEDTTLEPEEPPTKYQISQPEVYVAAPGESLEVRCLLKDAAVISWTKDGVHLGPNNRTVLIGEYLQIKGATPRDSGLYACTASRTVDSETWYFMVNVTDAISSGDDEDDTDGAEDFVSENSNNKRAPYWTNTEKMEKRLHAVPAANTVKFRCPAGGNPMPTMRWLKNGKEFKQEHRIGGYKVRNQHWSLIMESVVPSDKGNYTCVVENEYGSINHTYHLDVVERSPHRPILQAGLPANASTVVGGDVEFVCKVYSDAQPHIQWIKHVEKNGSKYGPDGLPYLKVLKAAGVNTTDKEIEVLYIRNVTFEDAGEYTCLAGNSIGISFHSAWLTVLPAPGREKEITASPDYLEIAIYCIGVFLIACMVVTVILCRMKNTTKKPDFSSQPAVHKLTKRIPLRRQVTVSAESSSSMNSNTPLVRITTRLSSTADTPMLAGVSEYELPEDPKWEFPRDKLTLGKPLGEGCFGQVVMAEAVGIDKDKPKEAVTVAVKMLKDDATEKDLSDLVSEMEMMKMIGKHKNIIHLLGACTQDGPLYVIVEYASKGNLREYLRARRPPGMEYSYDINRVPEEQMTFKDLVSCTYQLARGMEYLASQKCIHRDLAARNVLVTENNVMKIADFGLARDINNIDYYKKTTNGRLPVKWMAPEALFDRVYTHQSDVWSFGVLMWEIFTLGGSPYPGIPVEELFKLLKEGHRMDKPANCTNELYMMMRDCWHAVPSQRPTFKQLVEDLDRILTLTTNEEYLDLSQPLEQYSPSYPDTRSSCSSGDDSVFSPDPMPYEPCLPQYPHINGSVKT
Experimental: as §1

FGFR3 mutant (V555M) = FGFR3 mutant (V555M) (Homo sapiens, UniProt P22607, V555M); test: Pan-FGFR mutant enzymatic activity; type: biochemical; details: mutant enzyme
FGFR3 mutant (V555M), sequence (P22607 23-806 V555M): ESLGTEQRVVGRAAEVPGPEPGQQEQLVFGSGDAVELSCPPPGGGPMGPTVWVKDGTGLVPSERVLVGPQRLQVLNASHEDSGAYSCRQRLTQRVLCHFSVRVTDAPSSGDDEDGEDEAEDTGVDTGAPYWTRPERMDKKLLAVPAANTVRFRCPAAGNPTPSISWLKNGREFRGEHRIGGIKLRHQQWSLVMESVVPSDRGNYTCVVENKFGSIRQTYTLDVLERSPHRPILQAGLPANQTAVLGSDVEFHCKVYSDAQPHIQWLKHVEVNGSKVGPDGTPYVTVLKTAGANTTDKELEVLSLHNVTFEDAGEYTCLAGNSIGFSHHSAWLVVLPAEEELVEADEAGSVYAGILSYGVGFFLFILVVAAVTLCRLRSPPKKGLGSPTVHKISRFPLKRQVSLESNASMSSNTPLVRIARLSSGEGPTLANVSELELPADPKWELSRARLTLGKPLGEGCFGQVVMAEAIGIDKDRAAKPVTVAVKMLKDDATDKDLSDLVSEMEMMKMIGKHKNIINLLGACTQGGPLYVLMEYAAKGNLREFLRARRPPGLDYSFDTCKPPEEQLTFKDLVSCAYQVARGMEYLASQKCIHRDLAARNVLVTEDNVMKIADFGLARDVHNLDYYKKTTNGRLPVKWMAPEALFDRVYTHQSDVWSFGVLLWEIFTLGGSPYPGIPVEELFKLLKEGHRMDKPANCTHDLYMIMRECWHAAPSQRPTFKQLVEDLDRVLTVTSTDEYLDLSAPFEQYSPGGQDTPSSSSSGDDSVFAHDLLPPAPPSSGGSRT
Experimental: as §1

FGFR2 mutant (V564F) = FGFR2 mutant (V564F) (Homo sapiens, UniProt P21802, V564F); test: Pan-FGFR mutant enzymatic activity; type: biochemical; details: mutant enzyme
FGFR2 mutant (V564F), sequence (P21802 22-821 V564F): as the sequence (P21802 22-821 N549H) above, with H528N, V543F counted along it
Experimental: as §1

FGFR3 mutant (K650M) = FGFR3 mutant (K650M) (Homo sapiens, UniProt P22607, K650M); test: Pan-FGFR mutant enzymatic activity; type: biochemical; details: mutant enzyme
FGFR3 mutant (K650M), sequence (P22607 23-806 K650M): as the sequence (P22607 23-806 V555M) above, with M533V, K628M counted along it
Experimental: as §1

CYP3A4 = CYP3A4 (Homo sapiens, UniProt P08684); test: Inhibitory activity against CYP metabolic enzyme; type: in vitro ADME
CYP3A4, sequence (P08684 whole entry): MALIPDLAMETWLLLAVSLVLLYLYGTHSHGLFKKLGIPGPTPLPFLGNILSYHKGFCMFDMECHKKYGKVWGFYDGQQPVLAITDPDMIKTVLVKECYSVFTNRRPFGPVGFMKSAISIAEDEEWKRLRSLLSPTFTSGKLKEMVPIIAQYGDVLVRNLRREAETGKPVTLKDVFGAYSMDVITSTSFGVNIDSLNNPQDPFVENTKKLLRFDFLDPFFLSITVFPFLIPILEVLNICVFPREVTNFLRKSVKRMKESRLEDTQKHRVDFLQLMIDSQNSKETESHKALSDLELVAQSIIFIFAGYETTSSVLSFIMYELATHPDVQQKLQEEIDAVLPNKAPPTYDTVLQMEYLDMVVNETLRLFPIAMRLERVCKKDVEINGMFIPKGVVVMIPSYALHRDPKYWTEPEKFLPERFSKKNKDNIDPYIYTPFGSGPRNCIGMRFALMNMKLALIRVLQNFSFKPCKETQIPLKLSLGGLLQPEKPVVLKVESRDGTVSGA
Experimental: (§2) In order to determine whether or not there is a possibility that the compounds synthesized in Examples 1, 22, and 24 of the present invention can cause side effects of drug interaction, the rate (%) of inhibition against 5 major metabolic enzymes (CYP1A2, CYP2C9, CYP2C19, CYP2D6, and CYP3A4) among CYPs (cytochrome P450), which are enzymes involved in oxidative metabolism of drugs, was measured. […] That is, it can be seen that the compound of the present invention has a low possibility of causing side effects of drug interaction.

CYP1A2 = biological target: T1, CYP1A2 (Homo sapiens, UniProt P05177); test: Inhibitory activity against CYP metabolic enzyme; type: in vitro ADME
T1 sequence (P05177 1-516): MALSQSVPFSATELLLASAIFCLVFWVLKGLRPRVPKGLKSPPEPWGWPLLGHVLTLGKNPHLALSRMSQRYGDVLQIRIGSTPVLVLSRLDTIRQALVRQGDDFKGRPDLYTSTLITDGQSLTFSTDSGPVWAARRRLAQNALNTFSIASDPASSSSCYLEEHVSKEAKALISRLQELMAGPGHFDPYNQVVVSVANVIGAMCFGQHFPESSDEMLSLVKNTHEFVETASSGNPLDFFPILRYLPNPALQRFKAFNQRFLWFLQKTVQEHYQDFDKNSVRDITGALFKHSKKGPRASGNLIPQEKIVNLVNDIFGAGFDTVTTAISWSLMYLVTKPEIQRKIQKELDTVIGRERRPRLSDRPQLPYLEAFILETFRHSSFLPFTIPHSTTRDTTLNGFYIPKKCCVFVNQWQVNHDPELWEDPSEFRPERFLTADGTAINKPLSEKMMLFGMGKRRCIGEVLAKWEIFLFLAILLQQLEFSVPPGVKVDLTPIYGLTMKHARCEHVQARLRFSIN
Experimental: as §2

CYP2C9 = CYP2C9 (Homo sapiens, UniProt P11712); test: Inhibitory activity against CYP metabolic enzyme; type: in vitro ADME
CYP2C9, sequence (P11712 whole entry): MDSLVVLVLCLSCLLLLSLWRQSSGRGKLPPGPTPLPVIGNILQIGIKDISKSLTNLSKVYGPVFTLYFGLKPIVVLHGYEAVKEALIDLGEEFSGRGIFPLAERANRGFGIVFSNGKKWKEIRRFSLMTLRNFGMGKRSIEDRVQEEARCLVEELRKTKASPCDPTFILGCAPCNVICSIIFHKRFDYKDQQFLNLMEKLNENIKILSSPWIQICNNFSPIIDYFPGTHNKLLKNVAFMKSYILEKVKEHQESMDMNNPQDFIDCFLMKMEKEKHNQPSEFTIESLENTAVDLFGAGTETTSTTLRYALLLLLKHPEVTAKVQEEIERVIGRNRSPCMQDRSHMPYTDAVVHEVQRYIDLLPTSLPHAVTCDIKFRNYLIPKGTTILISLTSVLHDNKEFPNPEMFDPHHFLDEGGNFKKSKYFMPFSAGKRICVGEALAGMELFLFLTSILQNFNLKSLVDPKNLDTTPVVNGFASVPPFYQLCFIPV
Experimental: as §2

CYP2C19 = CYP2C19 (Homo sapiens, UniProt P33261); test: Inhibitory activity against CYP metabolic enzyme; type: in vitro ADME
CYP2C19, sequence (P33261 whole entry): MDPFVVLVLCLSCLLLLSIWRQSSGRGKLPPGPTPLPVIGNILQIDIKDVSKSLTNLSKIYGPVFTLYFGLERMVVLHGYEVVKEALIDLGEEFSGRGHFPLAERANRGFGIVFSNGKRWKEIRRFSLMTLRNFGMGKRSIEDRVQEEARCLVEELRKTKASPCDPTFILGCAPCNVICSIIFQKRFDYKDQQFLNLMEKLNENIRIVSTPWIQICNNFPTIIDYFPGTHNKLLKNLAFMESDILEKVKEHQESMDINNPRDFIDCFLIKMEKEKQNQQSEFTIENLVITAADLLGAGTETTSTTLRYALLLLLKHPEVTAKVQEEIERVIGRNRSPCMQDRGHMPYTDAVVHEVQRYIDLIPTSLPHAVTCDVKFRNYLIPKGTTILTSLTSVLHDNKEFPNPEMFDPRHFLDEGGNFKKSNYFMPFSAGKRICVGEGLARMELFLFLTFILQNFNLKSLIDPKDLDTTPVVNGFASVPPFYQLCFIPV
Experimental: as §2

CYP2D6 = CYP2D6 (Homo sapiens, UniProt P10635); test: Inhibitory activity against CYP metabolic enzyme; type: in vitro ADME
CYP2D6, sequence (P10635 whole entry): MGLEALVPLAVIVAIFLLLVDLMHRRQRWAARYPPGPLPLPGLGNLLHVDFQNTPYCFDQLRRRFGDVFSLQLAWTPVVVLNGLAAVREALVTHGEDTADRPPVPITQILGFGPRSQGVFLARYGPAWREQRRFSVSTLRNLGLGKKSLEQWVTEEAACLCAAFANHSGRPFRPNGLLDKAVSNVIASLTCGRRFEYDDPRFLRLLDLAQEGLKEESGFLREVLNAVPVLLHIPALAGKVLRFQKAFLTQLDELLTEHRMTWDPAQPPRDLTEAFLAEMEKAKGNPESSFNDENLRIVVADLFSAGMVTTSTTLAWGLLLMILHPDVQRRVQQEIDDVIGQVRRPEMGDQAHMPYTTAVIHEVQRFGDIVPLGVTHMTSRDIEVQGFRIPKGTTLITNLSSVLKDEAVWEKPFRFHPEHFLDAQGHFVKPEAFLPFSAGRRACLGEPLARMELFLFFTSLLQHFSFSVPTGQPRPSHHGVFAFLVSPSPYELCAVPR
Experimental: as §2

FGFR3 mutant (K650E), sequence (P22607 23-806 K650E): as the sequence (P22607 23-806 V555M) above, with M533V, K628E counted along it

- IC50 (FGFR3 mutant (K650E)): < 100 nM
- IC50 (FGFR2 mutant (N549H)): < 100 nM
- IC50 (FGFR3 mutant (V555M)): 100 to 1000 nM
- IC50 (FGFR2 mutant (V564F)): 100 to 1000 nM
- IC50 (FGFR3 mutant (K650M)): < 100 nM
- rate (%) of inhibition, CYP3A4 (CYP3A4): 17.0%
- rate (%) of inhibition, CYP1A2 (CYP1A2): 71.4%
- rate (%) of inhibition, CYP2C9 (CYP2C9): 70.2%
- rate (%) of inhibition, CYP2C19 (CYP2C19): 26.7%
- rate (%) of inhibition, CYP2D6 (CYP2D6): 80.9%
SMILES: CCN1CCN(c2ccc(Nc3ncnc(-c4cccnc4Nc4c(Cl)c(OC)cc(OC)c4Cl)n3)cc2)CC1 [Example 1]
